Measured values taken from ChEMBL document CHEMBL5338818, “Discovery of the First Potent, Selective, and In Vivo Efficacious Polo-like Kinase 4 Proteolysis Targeting Chimera Degrader for the Treatment of TRIM37-Amplified Breast Cancer” (J Med Chem, 2023).
pIC50: −log10 of the molar value. The source made the active and inactive calls. No cut-off for these calls is given here.

What was measured:
[1] = molecular target: T1, Protein cereblon/Serine/threonine-protein kinase PLK4 (Homo sapiens, UniProt O00444+Q96SW2); experiment: Protac activity at CRBN/PLK4 in human MCF7 cells at 10 uM by Western blot analysis; type: cell-based
T1 sequence (Q96SW2 whole entry, looked up, one chain of several): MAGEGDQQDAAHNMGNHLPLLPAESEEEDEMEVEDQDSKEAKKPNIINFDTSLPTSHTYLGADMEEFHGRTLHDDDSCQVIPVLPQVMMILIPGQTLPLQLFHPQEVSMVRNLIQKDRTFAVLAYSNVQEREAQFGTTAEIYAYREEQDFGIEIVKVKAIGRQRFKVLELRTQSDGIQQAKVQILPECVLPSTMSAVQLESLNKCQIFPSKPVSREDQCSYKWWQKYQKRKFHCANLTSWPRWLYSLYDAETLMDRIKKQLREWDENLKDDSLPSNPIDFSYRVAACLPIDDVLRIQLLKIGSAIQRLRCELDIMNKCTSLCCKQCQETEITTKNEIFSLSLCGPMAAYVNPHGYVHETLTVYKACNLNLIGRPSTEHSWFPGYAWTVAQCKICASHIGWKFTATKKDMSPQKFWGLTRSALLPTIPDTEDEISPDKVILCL

CYP2D6 = experiment: Inhibition of CYP2D6 in human liver microsomes at 10 uM using quinidine as substrate preincubated for 10 mins followed by NADPH regenerating system addition and measured after 15 mins by LC-MS/MS analysis relative to control; type: ADME, Microsome; settings: time 25 min
[2] = molecular target: T1, Protein cereblon/Serine/threonine-protein kinase PLK4; experiment: Protac activity at CRBN/PLK4 in human MCF7 cells at 0.1 uM incubated for 48 hrs by Western blot analysis; type: cell-based
[3] = molecular target: T1, Protein cereblon/Serine/threonine-protein kinase PLK4; experiment: Protac activity at CRBN/PLK4 in human MCF7 cells at 1 to 10 nM by Western blot analysis; type: cell-based; settings: dose 1-10 nM, time 6-72 hrs, TDE = time-dependent effect
MCF7 = experiment: Antiproliferative activity against human MCF7 cells incubated for 5 days by CCK-8 assay; settings: MCF7, 120 h
[4] = molecular target: T2, Serine/threonine-protein kinase PLK4 (Homo sapiens, UniProt O00444); experiment: Inhibition of PLK4 (unknown origin) incubated for 1 hr in presence of kinase tracer 236 by FRET assay
T2 sequence (O00444 whole entry): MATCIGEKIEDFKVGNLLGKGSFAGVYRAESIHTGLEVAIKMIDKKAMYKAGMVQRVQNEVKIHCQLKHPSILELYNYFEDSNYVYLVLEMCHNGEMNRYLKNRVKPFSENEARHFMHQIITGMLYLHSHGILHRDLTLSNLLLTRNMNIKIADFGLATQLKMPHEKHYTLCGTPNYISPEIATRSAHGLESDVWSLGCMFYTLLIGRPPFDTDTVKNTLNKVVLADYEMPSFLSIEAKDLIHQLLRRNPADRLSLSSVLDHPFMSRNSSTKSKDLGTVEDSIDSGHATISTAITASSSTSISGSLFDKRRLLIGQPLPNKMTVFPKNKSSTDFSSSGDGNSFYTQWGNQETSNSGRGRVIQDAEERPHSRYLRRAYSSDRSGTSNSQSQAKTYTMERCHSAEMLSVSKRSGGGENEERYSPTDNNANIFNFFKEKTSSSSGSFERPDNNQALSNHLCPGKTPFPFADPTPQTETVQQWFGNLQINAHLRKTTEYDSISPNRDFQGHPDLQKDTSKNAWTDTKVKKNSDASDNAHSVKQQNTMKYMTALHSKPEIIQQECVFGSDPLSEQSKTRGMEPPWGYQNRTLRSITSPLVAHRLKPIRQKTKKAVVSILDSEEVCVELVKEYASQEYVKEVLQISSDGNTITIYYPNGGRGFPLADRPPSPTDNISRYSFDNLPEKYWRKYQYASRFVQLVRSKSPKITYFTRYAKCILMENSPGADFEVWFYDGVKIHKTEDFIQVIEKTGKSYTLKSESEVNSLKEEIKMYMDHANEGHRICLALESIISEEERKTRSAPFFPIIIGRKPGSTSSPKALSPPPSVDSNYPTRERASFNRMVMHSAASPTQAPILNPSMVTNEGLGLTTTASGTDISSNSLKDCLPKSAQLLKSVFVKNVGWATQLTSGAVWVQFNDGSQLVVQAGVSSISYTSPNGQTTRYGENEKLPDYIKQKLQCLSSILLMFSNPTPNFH

[5] = molecular target: T1, Protein cereblon/Serine/threonine-protein kinase PLK4; experiment: Protac activity at CRBN/PLK4 in human MCF7 cells at 1 uM incubated for 48 hrs by Western blot analysis; type: cell-based
[6] = molecular target: T1, Protein cereblon/Serine/threonine-protein kinase PLK4; experiment: Protac activity at CRBN/PLK4 in human MCF7 cells at 10 uM incubated for 48 hrs by Western blot analysis; type: cell-based
[7] = Stability in human plasma assessed as half life at 100 uM after 120 mins by LC-MS/MS analysis; type: ADME, cell-free

SMILES	Activity [2] [%]	pIC50 (MCF7)	pIC50 [4]	Activity [5] [%]	Activity [6] [%]	other results
Cc1cc(Nc2nc(NCc3ccc(F)cc3F)nc3c2cnn3C2CCN(C(=O)C3CCN(c4ccc5c(c4)C(=O)N(C4CCC(=O)N(C)C4=O)C5=O)CC3)CC2)n[nH]1 (centres undefined)						Activity [1]: inactive
C=C[C@H]1C[N@@]2CC[C@H]1C[C@@H]2[C@@H](O)c1ccnc2ccc(OC)cc12 [QUINIDINE]						inhibition at 0.25 h, 10 µM (CYP2D6): 95.9%
Cc1cc(Nc2nc(NCc3ccc(F)cc3F)nc3c2cnn3C2CCN(C(=O)CCCOc3ccc4c(c3)C(=O)N(C3CCC(=O)NC3=O)C4=O)CC2)n[nH]1 (centres undefined)	44.6	5.67	8.82	53.1	65.8	Activity [3]: Tde
Cc1cc(Nc2nc(NCc3ccc(F)cc3F)nc3c2cnn3C2CCN(C(=O)CCCCOc3ccc4c(c3)C(=O)N(C3CCC(=O)NC3=O)C4=O)CC2)n[nH]1 (centres undefined)	44.1	6.59	8.59	56.8	63.6	
CC(C)[N+](C)(CCOC(=O)C1c2ccccc2Oc2ccccc21)C(C)C.[Br-] [PROPANTHELINE BROMIDE]						half-life at 100 µM [7]: 19.8 min
